{"source": "patent US20190315711A1", "about": "(eXIthera Pharmaceuticals, Inc., priority 2016, published 2019)"}
{"molecular_target": "human Factor XIa (Homo sapiens, UniProt P03951)", "sequence (P03951 388-625 limits assumed)": "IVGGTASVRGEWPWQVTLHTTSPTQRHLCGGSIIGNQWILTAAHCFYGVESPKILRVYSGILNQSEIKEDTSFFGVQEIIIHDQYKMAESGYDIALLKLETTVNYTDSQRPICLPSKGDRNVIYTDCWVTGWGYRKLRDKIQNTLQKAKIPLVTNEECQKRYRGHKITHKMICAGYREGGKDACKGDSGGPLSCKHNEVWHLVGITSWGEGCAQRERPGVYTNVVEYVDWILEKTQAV", "sequence (P03951 19-387 partner limits assumed)": "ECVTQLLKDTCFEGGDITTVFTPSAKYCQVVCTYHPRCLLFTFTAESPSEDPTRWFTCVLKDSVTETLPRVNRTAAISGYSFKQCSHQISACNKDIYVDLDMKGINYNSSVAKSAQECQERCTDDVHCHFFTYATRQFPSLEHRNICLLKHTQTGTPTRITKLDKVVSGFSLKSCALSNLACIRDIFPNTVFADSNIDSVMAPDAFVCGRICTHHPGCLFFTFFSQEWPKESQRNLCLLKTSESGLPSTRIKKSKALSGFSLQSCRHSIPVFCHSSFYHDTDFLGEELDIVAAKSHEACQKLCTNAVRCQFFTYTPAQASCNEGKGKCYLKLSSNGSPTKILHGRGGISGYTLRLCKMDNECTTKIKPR", "assay": "Factor XIa enzyme inhibition assay (dose response, fluorogenic AMC substrate)", "format": "biochemical", "design": "Enzyme: Factor XIa", "settings": "purified enzyme; substrate 50 μM, enzyme 0.25 nM; read-out: hFXIa IC50", "method": "• Assay buffer: 20 mM Hepes, pH 7.4; 150 mM NaCl; 0.02% Tween 20 • Compounds: 10 mM stocks in DMSO • Substrate: 20 mM Glp-Pro-Arg-AMC, 25 mg/2.3 mL H2O (store at +4° C.) [Factor XIa, thrombin, and trypsin] • 20 mM Pro-Phe-Arg-AMC (Bachem I-1295), 25 mg/2.2 mL H2O or Boc-Leu-Gly-Arg-AMC (Bachem I-1105), 25 mg/2.07 mL H2O (store at +4° C.) [Factor Xa] • Enzyme: Factor XIa; 0.25 M in 50% glycerol (20 μg/mL) • Trypsin; 0.2 μM in 50% glycerol (4.8 μg/mL) • Thrombin; 0.2 μM in 50% glycerol (7.34 μg/mL) • Factor Xa; 0.2 μM in 50% glycerol (9.2 μg/mL)\n• 1. Dilute the substrate to 100 μM in assay buffer (30 μL/6 mL). The enzyme is diluted to 0.5 nM just prior to use (12 L/6 mL for Factor XIa; 15 μL/6 mL for all of the rest.) • 2. Pipette 50 μL of substrate into each well of the 96 well (12×8) microtiter plate. (Column 1 is used as the 100% activity control and receives no compound, and Column 12 is the blank and receives no enzyme.) Add an additional 46 μL to column 2. • 3. Pipette 4 μL of each compound into the appropriate well in column 2 of the plate (unknowns assayed in triplicate, standard assayed in duplicate). The final compound concentration will be 1/50th of the stock. • 4. Serially two-fold dilute the compound by mixing the sample in column 2, removing 50 μL to the next well (column 3), mix and remove to column 4, etc. until column 11. After mixing column 11, remove 50 μL and discard. • 5. Pipette 50 μL of buffer into column 12. Initiate the reaction by adding 50 μL of enzyme solution to each well of columns 1-11 as rapidly as possible. • 6. Read the plate in a spectrophotometer (SpectraMax) at 30° C., wherein each well is measured every 60 s for 30 min. For Factor Xa assays, each well is measured every 1 min for a total of 60 min. • 7. For Factor XIa assays, the compounds are assayed, in duplicate, at 3 different starting concentrations, 20, 2, and 0.2 μM; 1:10, 1:100, and 1:1000 dilution of 10 mM stock or at 2, 0.2, and 0.02 μM; 1:100, 1:1000, and 1:10,000 dilution of 10 mM stock. Data for each concentration are combined for graphing and data fitting. • 8. Data can be used both for estimation of IC50 and for estimation of Kon.\nPotential inhibitors of Factor XIa were evaluated using the following assay.\nPyroGlu-Pro-Arg-7-methylaminocourin (AMC), available from CPC Scientific, Inc., is based on the substrate pyro-Glu-Pro-Arg-pNA (S-2366), available from Diapharma Group, Inc. (Columbus, Ohio), wherein the p-nitroanaline group is replaced with 7-methylaminocoumarin (AMC).\nThe final concentration of the substrate in the assay was 50 μM, and the final concentration of the enzyme was 0.25 nM. Inhibitors were tested by serial dilution over an appropriate range to yield a dose response curve for determination of the inhibitors' IC50 value. The assay mixture was read every minute for 30 minutes in order to generate progress curves. The plates were read in a Spectramax m5 Multimode Plate Reader (Molecular Devices LLC, Sunnyvale, Calif.). Dose response curves were fit to Equation 1 below in which A is the maximum inhibition, B is the minimum inhibition, C is the IC50, and D is the Hill coefficient.\nY=[(A−B)/(1+(X/C)^D)]+B (Equation 1)", "units": {"IC50": "nM"}}
{"smiles": "CC[C@@H](NC(=O)N1C(=O)[C@H](Cc2ccnc(N)c2)[C@H]1C(=O)N(C)c1ccccc1)c1ccc(F)c(F)c1", "note": "[Compound 48]", "IC50": "100 to 1000"}
{"smiles": "CC[C@@H](NC(=O)N1C(=O)[C@H](Cc2ccnc(N)c2)[C@H]1C(=O)N(C)c1ccncc1)c1cccc(F)c1F", "note": "[Compound 130]", "IC50": "10 to 100"}
{"smiles": "CC[C@@H](NC(=O)N1C(=O)[C@H](Cc2ccncc2)[C@H]1C(=O)N(C)c1ccncc1)C1CCCCC1", "note": "[Compound 65]", "IC50": "100 to 1000"}
{"smiles": "C[C@@H](NC(=O)N1C(=O)[C@H](Cc2ccnc(N)c2)[C@H]1C(=O)N(C)c1ccccc1)c1cccnc1", "note": "[Compound 60]", "IC50": "10 to 100"}
{"smiles": "CC[C@@H](NC(=O)N1C(=O)[C@H](Cc2ccnc(N)c2)[C@H]1C(=O)N(C)c1ccncc1)c1cccc(F)c1", "note": "[Compound 103]", "IC50": "< 10"}
{"smiles": "CN(C(=O)[C@@H]1[C@@H](Cc2ccnc(N)c2)C(=O)N1C(=O)N[C@@H](C1CCCCC1)C1CC1)c1ncccn1", "note": "[Compound 53]", "IC50": "< 10"}
{"smiles": "CC[C@@H](NC(=O)N1C(=O)[C@H](Cc2ccnc(N)c2)[C@H]1C(=O)N(C)c1ccccc1C)C1CCCCC1", "note": "[Compound 26]", "IC50": "10 to 100"}
{"smiles": "CN(C(=O)[C@@H]1[C@@H](Cc2ccnc(N)c2)C(=O)N1C(=O)N[C@@H](c1cccnc1)C1CC1)c1ccccc1", "note": "[Compound 58]", "IC50": "10 to 100"}
{"smiles": "CCN(C(=O)[C@@H]1[C@@H](Cc2ccnc(N)c2)C(=O)N1C(=O)N[C@@H](C1CCCCC1)C(F)(F)F)c1ccnc(C)c1", "note": "[Compound 34]", "IC50": "< 10"}
{"smiles": "CN(C(=O)[C@@H]1[C@@H](Cc2ccnc(N)c2)C(=O)N1C(=O)N[C@@H](C1CCCCC1)C(F)(F)F)c1ccccn1", "note": "[Compound 16]", "IC50": "< 10"}
{"smiles": "CC[C@@H](NC(=O)N1C(=O)[C@H](Cc2ccnc(N)c2)[C@H]1C(=O)N(C)c1ccccc1)c1ccncc1", "note": "[Compound 43]", "IC50": "100 to 1000"}
{"smiles": "CC[C@@H](NC(=O)N1C(=O)[C@H](Cc2cc(N)ncc2C)[C@H]1C(=O)N(C)c1ccncc1)C1CCCCC1", "note": "[Compound 92]", "IC50": "10 to 100"}
{"smiles": "CC[C@@H](NC(=O)N1C(=O)[C@H](Cc2ccnc(N)c2)[C@H]1C(=O)N(C)c1ccncc1)c1cccc(C(F)(F)F)c1", "note": "[Compound 105]", "IC50": "10 to 100"}
{"smiles": "CC[C@@H](NC(=O)N1C(=O)[C@H](Cc2ccnc(N(C)C)c2)[C@H]1C(=O)N(C)c1ccncc1)c1cccc(Cl)c1", "note": "[Compound 140]", "IC50": "100 to 1000"}
{"smiles": "CC[C@@H](NC(=O)N1C(=O)[C@H](Cc2ccnc(N)c2)[C@H]1C(=O)N(C)c1ccncc1)c1cc(F)ccc1F", "note": "[Compound 110]", "IC50": "< 10"}
{"smiles": "CC[C@@H](NC(=O)N1C(=O)[C@H](Cc2cc(C)nc(N)c2)[C@H]1C(=O)N(C)c1ccncc1)c1cccc(Cl)c1", "note": "[Compound 111]", "IC50": "< 10"}
{"smiles": "CCC[C@@H](NC(=O)N1C(=O)[C@H](Cc2ccnc(N)c2)[C@H]1C(=O)N(C)c1ccccc1)c1cccnc1", "note": "[Compound 68]", "IC50": "10 to 100"}
{"smiles": "CC[C@@H](NC(=O)N1C(=O)[C@H](Cc2ccnc(N(C)C)c2)[C@H]1C(=O)N(C)c1ccncc1)c1ccccc1Cl", "note": "[Compound 139]", "IC50": "100 to 1000"}
{"smiles": "CN(C(=O)[C@@H]1[C@@H](Cc2ccnc(N)c2)C(=O)N1C(N)=O)c1ccncc1", "note": "[Compound 72]", "IC50": "10 to 100"}
{"smiles": "CN(C(=O)[C@@H]1[C@@H](Cc2ccnc(N)c2)C(=O)N1C(N)=O)c1ccccc1", "note": "[Compound 57]", "IC50": "100 to 1000"}
{"smiles": "CN(C(=O)[C@@H]1[C@@H](Cc2ccnc(N)c2)C(=O)N1C(=O)N[C@@H](c1cccnc1)C(F)(F)F)c1ccccc1", "note": "[Compound 67]", "IC50": "10 to 100"}
{"smiles": "CC[C@@H](NC(=O)N1C(=O)[C@H](Cc2cc(N)ncc2F)[C@H]1C(=O)N(C)c1ccncc1)c1cccc(Cl)c1", "note": "[Compound 131]", "IC50": "100 to 1000"}
{"smiles": "CN(C(=O)[C@@H]1[C@@H](Cc2ccncc2)C(=O)N1C(=O)N[C@@H](C1CCCCC1)C1CC1)c1ccccc1", "note": "[Compound 63]", "IC50": "100 to 1000"}
{"smiles": "CCc1cccc([C@@H](CC)NC(=O)N2C(=O)[C@H](Cc3ccnc(N)c3)[C@H]2C(=O)N(C)c2ccncc2)c1", "note": "[Compound 126]", "IC50": "< 10"}
{"smiles": "CN(C(=O)[C@@H]1[C@@H](Cc2ccnc(N)c2)C(=O)N1C(=O)NCc1cccc(Cl)c1)c1ccccc1", "note": "[Compound 137]", "IC50": "10 to 100"}
{"smiles": "Nc1cc(C[C@H]2C(=O)N(C(=O)N[C@@H](C3CCCCC3)C(F)(F)F)[C@@H]2C(=O)N2CCCc3ccccc32)ccn1", "note": "[Compound 76]", "IC50": "10 to 100"}
{"smiles": "CC[C@@H](NC(=O)N1C(=O)[C@H](Cc2ccnc(NC)c2)[C@H]1C(=O)N(C)c1ccncc1)c1cccc(Cl)c1", "note": "[Compound 109]", "IC50": "< 10"}
{"smiles": "CN(C(=O)[C@@H]1[C@@H](Cc2ccnc(N)c2)C(=O)N1C(=O)NC1CCCc2ccccc21)c1ccccc1", "note": "(some centres unmarked) [Compound 41]", "IC50": "100 to 1000"}
{"smiles": "COc1cccc(N(C)C(=O)[C@@H]2[C@@H](Cc3ccnc(N)c3)C(=O)N2C(=O)N[C@@H](C2CCCCC2)C(F)(F)F)c1", "note": "[Example 12]", "IC50": "10 to 100"}
{"smiles": "CC[C@@H](NC(=O)N1C(=O)[C@H](Cc2ccncc2)[C@H]1C(=O)N(C)c1ccccc1)c1cccnc1", "note": "[Compound 66]", "IC50": "100 to 1000"}
{"smiles": "CCC[C@H](NC(=O)N1C(=O)[C@H](Cc2ccnc(N)c2)[C@H]1C(=O)N(C)c1ccccc1)c1cccnc1", "note": "[Compound 69]", "IC50": "10 to 100"}
{"smiles": "Cc1cccc(N(C)C(=O)[C@@H]2[C@@H](Cc3ccnc(N)c3)C(=O)N2C(=O)N[C@@H](C2CCCCC2)C(F)(F)F)c1", "note": "[Compound 14]", "IC50": "10 to 100"}
{"smiles": "CC[C@@H](NC(=O)N1C(=O)[C@H](Cc2cc(C)nc(N)c2)[C@H]1C(=O)N(C)c1ccccc1)c1ccc(C)nc1", "note": "[Compound 132]", "IC50": "10 to 100"}
{"smiles": "CCC[C@@H](NC(=O)N1C(=O)[C@H](Cc2ccnc(N)c2)[C@H]1C(=O)N(C)c1ccncc1)c1cccnc1", "note": "[Compound 73]", "IC50": "< 10"}
{"smiles": "CC[C@@H](NC(=O)N1C(=O)[C@H](Cc2ccnc(N)c2)[C@H]1C(=O)N(C)c1ccncc1)c1ccccc1F", "note": "[Compound 108]", "IC50": "< 10"}
{"smiles": "CC[C@@H](NC(=O)N1C(=O)[C@H](Cc2ccnc(N)c2)[C@H]1C(=O)N(C)c1cc(C)nc(C)c1)c1cccc(Cl)c1", "note": "[Compound 123]", "IC50": "10 to 100"}
{"smiles": "CN(C(=O)[C@@H]1[C@@H](Cc2ccnc(N)c2)C(=O)N1C(=O)N[C@@H](c1cccnc1)C1CC1)c1ncccn1", "note": "[Compound 75]", "IC50": "< 10"}
{"smiles": "Nc1cc(C[C@H]2C(=O)N(C(=O)N[C@@H](C3CCCCC3)C(F)(F)F)[C@@H]2C(=O)NC2CC2)ccn1", "note": "[Compound 1]", "IC50": "10 to 100"}
{"smiles": "CC[C@@H](NC(=O)N1C(=O)[C@H](Cc2ccnc(N)c2)[C@H]1C(=O)N(C)c1ccncc1)c1ccc(OC(F)(F)F)cc1", "note": "[Compound 94]", "IC50": "10 to 100"}
{"smiles": "Nc1cc(C[C@H]2C(=O)N(C(=O)N[C@@H](C3CCCCC3)C(F)(F)F)[C@@H]2C(=O)Nc2ccc(Cl)cc2)ccn1", "note": "[Example 9]", "IC50": "100 to 1000"}
{"smiles": "CC[C@@H](NC(=O)N1C(=O)[C@H](Cc2ccnc(N)c2)[C@H]1C(=O)N(C)c1ccncc1)c1cncnc1", "note": "[Compound 102]", "IC50": "10 to 100"}
{"smiles": "CCNC(=O)[C@@H]1[C@@H](Cc2ccnc(N)c2)C(=O)N1C(=O)N[C@@H](c1ccccc1)C(F)(F)F", "note": "[Compound 2]", "IC50": "10 to 100"}
{"smiles": "CC[C@@H](NC(=O)N1C(=O)[C@H](Cc2ccnc(NC(C)=O)c2)[C@H]1C(=O)N(C)c1ccncc1)c1cccc(Cl)c1", "note": "[Compound 107]", "IC50": "10 to 100"}
{"smiles": "CC[C@@H](NC(=O)N1C(=O)[C@H](Cc2ccncc2)[C@H]1C(=O)N(C)c1ccccc1)C1CCCCC1", "note": "[Compound 62]", "IC50": "100 to 1000"}
{"smiles": "CN(C(=O)[C@@H]1[C@@H](Cc2ccnc(N)c2)C(=O)N1C(=O)N[C@H](C1CCCCC1)C1CC1)c1ccccc1", "note": "[Compound 45]", "IC50": "< 10"}
{"smiles": "CC[C@@H](NC(=O)N1C(=O)[C@H](Cc2ccnc(N)c2)[C@H]1C(=O)N(C)c1ccncc1)c1ccc(F)c(F)c1", "note": "[Compound 93]", "IC50": "10 to 100"}
{"smiles": "Cc1cccc(C(NC(=O)N2C(=O)[C@H](Cc3ccnc(N)c3)[C@H]2C(=O)N(C)c2ccncc2)c2cccc(C)c2)c1", "note": "[Compound 101]", "IC50": "< 10"}
